In patent US10167262B2, “Herbicidal substituted 3-arylpyrazoles” (FMC CORPORATION, priority 2014, dated 2019):

How the values were obtained:
Assay type in all cases: in vivo
[1] = test system: bermudagrass (Cynodon dactylon); test: Test C postemergence greenhouse test, plant response rating 0-100; details: for Plant response rating (0 to 100), Bermudagrass: 62 g ai/ha; for Plant response rating, Bermudagrass: scale 0 to 100
How it was run: (§1)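 Postemergence spray of formulated test chemicals on plants 2 to 18 cm tall (1- to 4-leaf stage) grown in peat/vermiculite medium. Greenhouse hold 13 to 15 days, then visual comparison with untreated controls on a 0-100 scale (0 no effect, 100 complete control); dash means no test result.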

[2] = test system: canarygrass (Phalaris minor); test: as above; details: for Plant response rating, Canarygrass: scale 0 to 100
How it was run: as §1

[3] = test system: cocklebur (common cocklebur, Xanthium strumarium); test: as above; details: for Plant response rating, Cocklebur: scale 0 to 100
How it was run: as §1

[4] = test system: deadnettle (henbit deadnettle, Lamium amplexicaule); test: as above; details: for Plant response rating, Deadnettle: scale 0 to 100
How it was run: as §1

[5] = test system: downy bromegrass (Bromus tectorum); test: as above; details: for Plant response rating (0 to 100), Bromegrass, Downy: 62 g ai/ha; for Plant response rating, Bromegrass, Downy: scale 0 to 100
How it was run: as §1

[6] = test system: goosegrass (Eleusine indica); test: as above; details: for Plant response rating, Goosegrass: scale 0 to 100
How it was run: as §1

[7] = test system: green foxtail (Setaria viridis); test: as above; details: for Plant response rating, Foxtail, Green: scale 0 to 100
How it was run: as §1

[8] = test system: surinam grass (Brachiaria decumbens); test: as above; details: for Plant response rating, Surinam Grass: scale 0 to 100
How it was run: as §1

[9] = test system: windgrass (Apera spica-venti); test: as above; details: for Plant response rating, Windgrass: scale 0 to 100
How it was run: as §1

[10] = test system: winter barley (Hordeum vulgare); test: as above; details: for Plant response rating (0 to 100), Barley: 62 g ai/ha; for Plant response rating, Barley: scale 0 to 100
How it was run: as §1

[11] = test system: woolly cupgrass (Eriochloa villosa); test: as above; details: for Plant response rating, Cupgrass, Woolly: scale 0 to 100
How it was run: as §1

[12] = test system: waterhemp_RES2, (ALS & HPPD resistant common waterhemp, Amaranthus rudis); test: Test E postemergence greenhouse test, plant response rating 0-100; details: scale 0 to 100
Method: At the same time, plants from these crop and weed species and also waterhemp_RES1, (ALS & Triazine resistant common waterhemp, Amaranthus rudis), and waterhemp_RES2, (ALS & HPPD resistant common waterhemp, Amaranthus rudis) were planted in pots containing Redi-Earth® planting medium (Scotts Company, 14111 Scottslawn Road, Marysville, Ohio 43041) comprising spaghnum peat moss, vermiculite, wetting agent and starter nutrients were treated with postemergence applications of test chemicals formulated in the same manner. Plants ranged in height from 2 to 18 cm for postemergence treatments (1- to 4-leaf stage).
Treated plants and controls were maintained in a greenhouse for 14 to 21 days, after which time all species were compared to controls and visually evaluated. Plant response ratings, summarized in Table E, are based on a scale of 0 to 100 where 0 is no effect and 100 is complete control. A dash (-) response means no test result.

Compound: Cn1cc(C(=O)c2cccs2)c(-c2cc(Cl)cc(Cl)c2)n1 [Compound 17]
- Plant response rating (0 to 100), Bermudagrass [1]: 0
- Plant response rating, Bermudagrass ([1]; 125 g ai/ha): 0
- Plant response rating, Bermudagrass ([1]; 250 g ai/ha): 0
- Plant response rating, Bermudagrass ([1]; 500 g ai/ha): 0
- Plant response rating (0 to 100), Canarygrass ([2]; 62 g ai/ha): 0
- Plant response rating (0 to 100), Canarygrass ([2]; 125 g ai/ha): 0
- Plant response rating, Canarygrass ([2]; 250 g ai/ha): 0
- Plant response rating, Canarygrass ([2]; 500 g ai/ha): 5
- Plant response rating (0 to 100), Cocklebur ([3]; 62 g ai/ha): 5
- Plant response rating (0 to 100), Cocklebur ([3]; 125 g ai/ha): 10
- Plant response rating, Cocklebur ([3]; 250 g ai/ha): 30
- Plant response rating, Cocklebur ([3]; 500 g ai/ha): 40
- Plant response rating (0 to 100), Deadnettle ([4]; 62 g ai/ha): 0
- Plant response rating (0 to 100), Deadnettle ([4]; 125 g ai/ha): 0
- Plant response rating, Deadnettle ([4]; 250 g ai/ha): 0
- Plant response rating, Deadnettle ([4]; 500 g ai/ha): 0
- Plant response rating (0 to 100), Bromegrass, Downy [5]: 0
- Plant response rating, Bromegrass, Downy ([5]; 125 g ai/ha): 0
- Plant response rating, Bromegrass, Downy ([5]; 250 g ai/ha): 0
- Plant response rating, Bromegrass, Downy ([5]; 500 g ai/ha): 0
- Plant response rating (0 to 100), Goosegrass ([6]; 62 g ai/ha): 0
- Plant response rating (0 to 100), Goosegrass ([6]; 125 g ai/ha): 0
- Plant response rating, Goosegrass ([6]; 250 g ai/ha): 5
- Plant response rating, Goosegrass ([6]; 500 g ai/ha): 5
- Plant response rating (0 to 100), Foxtail, Green ([7]; 62 g ai/ha): 0
- Plant response rating (0 to 100), Foxtail, Green ([7]; 125 g ai/ha): 0
- Plant response rating, Foxtail, Green ([7]; 250 g ai/ha): 0
- Plant response rating, Foxtail, Green ([7]; 500 g ai/ha): 0
- Plant response rating (0 to 100), Surinam Grass ([8]; 62 g ai/ha): 0
- Plant response rating (0 to 100), Surinam Grass ([8]; 125 g ai/ha): 0
- Plant response rating, Surinam Grass ([8]; 250 g ai/ha): 5
- Plant response rating, Surinam Grass ([8]; 500 g ai/ha): 5
- Plant response rating (0 to 100), Windgrass ([9]; 62 g ai/ha): 0
- Plant response rating (0 to 100), Windgrass ([9]; 125 g ai/ha): 0
- Plant response rating, Windgrass ([9]; 250 g ai/ha): 0
- Plant response rating, Windgrass ([9]; 500 g ai/ha): 0
- Plant response rating (0 to 100), Barley [10]: 0
- Plant response rating, Barley ([10]; 125 g ai/ha): 0
- Plant response rating, Barley ([10]; 250 g ai/ha): 0
- Plant response rating, Barley ([10]; 500 g ai/ha): 0
- Plant response rating (0 to 100), Cupgrass, Woolly ([11]; 62 g ai/ha): 0
- Plant response rating (0 to 100), Cupgrass, Woolly ([11]; 125 g ai/ha): 0
- Plant response rating, Cupgrass, Woolly ([11]; 250 g ai/ha): 0
- Plant response rating, Cupgrass, Woolly ([11]; 500 g ai/ha): 15
- Plant response rating, Waterhemp_RES2 ([12]; 31 g ai/ha): 60
- Plant response rating, Waterhemp_RES2 ([12]; 62 g ai/ha): 75
- Plant response rating, Waterhemp_RES2 ([12]; 125 g ai/ha): 80
- Plant response rating, Waterhemp_RES2 ([12]; 250 g ai/ha): 85
- Plant response rating, Waterhemp_RES2 ([12]; 500 g ai/ha): 95

Compound: CCn1cc(C(=O)c2cccs2)c(-c2cc(Cl)cc(Cl)c2)n1 [Compound 18]
- Plant response rating (0 to 100), Bermudagrass [1]: 0
- Plant response rating, Bermudagrass ([1]; 125 g ai/ha): 0
- Plant response rating, Bermudagrass ([1]; 250 g ai/ha): 0
- Plant response rating, Bermudagrass ([1]; 500 g ai/ha): 5
- Plant response rating (0 to 100), Canarygrass ([2]; 62 g ai/ha): 0
- Plant response rating (0 to 100), Canarygrass ([2]; 125 g ai/ha): 0
- Plant response rating, Canarygrass ([2]; 250 g ai/ha): 0
- Plant response rating, Canarygrass ([2]; 500 g ai/ha): 5
- Plant response rating (0 to 100), Cocklebur ([3]; 62 g ai/ha): 5
- Plant response rating (0 to 100), Cocklebur ([3]; 125 g ai/ha): 5
- Plant response rating, Cocklebur ([3]; 250 g ai/ha): 15
- Plant response rating, Cocklebur ([3]; 500 g ai/ha): 20
- Plant response rating (0 to 100), Deadnettle ([4]; 62 g ai/ha): 20
- Plant response rating (0 to 100), Deadnettle ([4]; 125 g ai/ha): 40
- Plant response rating, Deadnettle ([4]; 250 g ai/ha): 55
- Plant response rating, Deadnettle ([4]; 500 g ai/ha): 60
- Plant response rating (0 to 100), Bromegrass, Downy [5]: 0
- Plant response rating, Bromegrass, Downy ([5]; 125 g ai/ha): 0
- Plant response rating, Bromegrass, Downy ([5]; 250 g ai/ha): 0
- Plant response rating, Bromegrass, Downy ([5]; 500 g ai/ha): 0
- Plant response rating (0 to 100), Goosegrass ([6]; 62 g ai/ha): 0
- Plant response rating (0 to 100), Goosegrass ([6]; 125 g ai/ha): 0
- Plant response rating, Goosegrass ([6]; 250 g ai/ha): 10
- Plant response rating, Goosegrass ([6]; 500 g ai/ha): 15
- Plant response rating (0 to 100), Foxtail, Green ([7]; 62 g ai/ha): 0
- Plant response rating (0 to 100), Foxtail, Green ([7]; 125 g ai/ha): 0
- Plant response rating, Foxtail, Green ([7]; 250 g ai/ha): 0
- Plant response rating, Foxtail, Green ([7]; 500 g ai/ha): 0
- Plant response rating (0 to 100), Surinam Grass ([8]; 62 g ai/ha): 5
- Plant response rating (0 to 100), Surinam Grass ([8]; 125 g ai/ha): 5
- Plant response rating, Surinam Grass ([8]; 250 g ai/ha): 10
- Plant response rating, Surinam Grass ([8]; 500 g ai/ha): 10
- Plant response rating (0 to 100), Windgrass ([9]; 62 g ai/ha): 0
- Plant response rating (0 to 100), Windgrass ([9]; 125 g ai/ha): 0
- Plant response rating, Windgrass ([9]; 250 g ai/ha): 0
- Plant response rating, Windgrass ([9]; 500 g ai/ha): 5
- Plant response rating (0 to 100), Barley [10]: 0
- Plant response rating, Barley ([10]; 125 g ai/ha): 0
- Plant response rating, Barley ([10]; 250 g ai/ha): 0
- Plant response rating, Barley ([10]; 500 g ai/ha): 0
- Plant response rating (0 to 100), Cupgrass, Woolly ([11]; 62 g ai/ha): 5
- Plant response rating (0 to 100), Cupgrass, Woolly ([11]; 125 g ai/ha): 10
- Plant response rating, Cupgrass, Woolly ([11]; 250 g ai/ha): 15
- Plant response rating, Cupgrass, Woolly ([11]; 500 g ai/ha): 20
- Plant response rating, Waterhemp_RES2 ([12]; 31 g ai/ha): 65
- Plant response rating, Waterhemp_RES2 ([12]; 62 g ai/ha): 80
- Plant response rating, Waterhemp_RES2 ([12]; 125 g ai/ha): 85
- Plant response rating, Waterhemp_RES2 ([12]; 250 g ai/ha): 90
- Plant response rating, Waterhemp_RES2 ([12]; 500 g ai/ha): 95
